Laboratory results as given in US20260091136A1, “USING ENHO GENE THERAPY TO TREAT CARDIOMETABOLIC DISEASE” (University of Pittsburgh-of the Commonwealth System of …, priority 2023, published 2026).
Entries after “also recorded” stand apart in the source; their conditions may differ.

What was measured:
[1] = test system: GPR19; details: previous work from our group; cited from earlier work
[2] = test system: HFpEF mice; assay: Body weight, HFpEF (HFD+L-NAME) mice with daily i.p. recombinant adropin (cohort 2, Examples 3 and 4); format: in vivo, C57BL/6J mice; details: HFpEF+Adropin vs vehicle-treated HFpEF, 450 nmol/kg daily i.p., day 28
From the text: (§1) Twelve week-old C57BL/6J wild-type male mice were exposed to normal chow, or a combination of 60% high fat diet plus N^ω-nitro-L-arginine methyl ester (L-NAME: 0.5 g/L in drinking water) to induce HFpEF. After 8 weeks of diet, mice were randomly assigned to a control HFpEF group, or to a group receiving daily intraperitoneal injections of recombinant Adropin (450 nmol/kg) for the remaining weeks of the study. All animal experiments were approved by the University of Pittsburgh Institutional Animal Care and Use Committee. […] These changes occurred in the absence of systolic dysfunction (FIG. 6). Each marker of cardiac dysfunction was absent in HFpEF mice treated with Adropin (FIG. 6).
Animal Care and Use. Male C57BL/6J 8-week-old mice were obtained from the Jackson Laboratory and maintained on chow for 4 weeks to acclimate to their new environment. Animals were housed in the University of Pittsburgh animal facility under standard conditions with ad libitum access to water and food and maintained on a constant 12-hour light/dark cycle. At 12 weeks of age, the mice were exposed to normal chow (Chow; 60% carbohydrate, 26% protein, 14% fat), or a combination of high-fat diet (HFD; 20% carbohydrate, 20% protein, 60% fat) plus No-nitro-L-arginine methyl ester (L-NAME: 0.5 g/L) supplemented in their drinking water after adjusting the pH to 7.4 with 1N NaOH to induce HFpEF [10]. […]

[3] = test system: HFpEF mice; assay: Intraperitoneal glucose tolerance test (IPGTT), cohort 2; format: in vivo, C57BL/6J mice
From the text: as §1
Animal Care and Use. Male C57BL/6J 8-week-old mice were obtained from the Jackson Laboratory and maintained on chow for 4 weeks to acclimate to their new environment. Animals were housed in the University of Pittsburgh animal facility under standard conditions with ad libitum access to water and food and maintained on a constant 12-hour light/dark cycle. […]
Intraperitoneal Glucose Tolerance Test (IPGTT). […] Blood glucose was measured by tail bleed at set time points using a Bayer Contour Next EZ handheld glucometer (t=15, 30, 45, 60, and 120 min).

[4] = test system: GPR19; assay: Wildtype and GPR19-knockout mice on HFpEF diet with or without Adropin; format: in vivo
From the text: Wildtype and GPR19-knockout (GPR19-KO) mice were given normal chow (control mice), HFpEF diet without Adropin, or HFpEF with Adropin.

[5] = In vivo stability of recombinant Adropin (clearance from circulation); details: within 1 hour
[6] = test system: HFpEF mice; assay: Cardiac function testing by ultrasonography in HFpEF mice (Example 1); format: in vivo; details: for diastolic function: HFpEF mice, daily Adropin treatment
Description: (§2) Administration of Recombinant Adropin. Mice received low-fat chow or HFpEF diet for 10 weeks. For the following 4 weeks, the mice were maintained on respective diets and received daily injections of recombinant Adropin. Body weight was measured every day during the four weeks of treatment.
Cardiac function testing. After 2 weeks, mice were tested using ultrasonography to measure cardiac function and morphology. To determine systolic function and morphology, mice were tested using M-mode echocardiography to measure left ventricle (LV) mass, volume, wall thickness, and contraction (LV ejection fraction and fractional shortening). To determine diastolic function, mice were tested using Doppler to measure LV relaxation and filling (E/A ratio, E/e′ ratio, and isovolumetric relaxation time [IVRT]).

[7] = test system: LCAD; assay: LCAD activity assay in cardiac tissue; format: in vivo, C57BL/6J mice; details: isolated cardiac tissues; downregulated in HFpEF vs chow
From the text: (§3) Animal Care and Use. Male C57BL/6J 8-week-old mice were obtained from the Jackson Laboratory and maintained on chow for 4 weeks to acclimate to their new environment. Animals were housed in the University of Pittsburgh animal facility under standard conditions with ad libitum access to water and food and maintained on a constant 12-hour light/dark cycle. At 12 weeks of age, the mice were exposed to normal chow (Chow; 60% carbohydrate, 26% protein, 14% fat), or a combination of high-fat diet (HFD; 20% carbohydrate, 20% protein, 60% fat) plus No-nitro-L-arginine methyl ester (L-NAME: 0.5 g/L) supplemented in their drinking water after adjusting the pH to 7.4 with 1N NaOH to induce HFpEF [10]. For cohort 1, the mice were subject to the HFpEF diet for 15 weeks. For cohort 2, after 8 weeks of diet, mice were randomly assigned to a control or treatment group receiving daily intraperitoneal injections of either vehicle or recombinant adropin at 450 nmol/kg animal weight prepared in PBS with 0.1% BSA for the remaining 5 weeks of the study. L-NAME supplemented drinking water was changed weekly and adropin was made fresh and sterile filtered before each use.
LCAD Activity Assay/Biochemical Assays/Enzyme activity assay. […] The reaction was initiated with 60 µM acyl-CoA, and the rate of absorbance change was measured/observed at 600 nm over 45 min. […]

[8] = test system: HFpEF mice; assay: Body weight during four weeks of daily recombinant Adropin in HFpEF mice (Example 1); format: in vivo; details: for relative body weight (change per mouse between days 0 and 29): p-value<0.0001
From the text: The mouse HFpEF model used in this study was first reported in Schiattarella et al. (2019), Nature 568: 351-356 (PMID: 30971818). Adult C57BL/6N or C57BL/6J mice (i.e. C57BL/6 wildtype) are placed on a diet of either regular chow (“control”), or a high fat diet (60% fat) supplemented with 0.5 g/L L-NAME in drinking water (“HFpEF”) for 5-20 weeks.
as §2

[9] = test system: HFpEF mice; assay: Heart, lung and liver mass after four weeks of Adropin in HFpEF mice (Example 1); format: in vivo
Description: as §2

[10] = test system: hearts from control HFpEF and Adropin treated HFpEF mice; assay: Bulk RNA sequencing of hearts, HFpEF vs HFpEF+Adropin; format: in vivo, C57BL/6J mice; details: heart bulk RNA-seq
From the text: as §3
Transcriptomics. Total RNA was isolated from myocardial LV and hepatic tissue using the RNeasy Plus Mini Kit. Approximately 2 μg RNA was used for bulk RNA sequencing performed by Azenta/GENEWIZ based on company recommendations to identify differential gene expression patterns between the experimental groups.

[11] = wildtype HFpEF mice that received Adropin vs wildtype control mice
[12] = 2 weeks of Adropin, vs HFpEF mice without treatment
[13] = 2 weeks of Adropin, vs HFpEF mice without treatment, p-value <0.05

Adropin: recombinant Adropin peptide hormone encoded by the ENHO gene; full-length (SEQ ID NO: 1) or cleaved product of amino acids 34-76 (SEQ ID NO: 2) (CHSRSADVDSLSESSPNSSPGPCPEKAPPPQKPSHEGSYLLQP)
Adropin function in cardiac cells [1]: dependent on GPR19 | absolute body weight [2]: not associated with a significant decrease; also recorded: does not significantly change | absolute body weight ([2]; listed as adropin): non-significant decrease | increase in circulating blood glucose levels (IPGTT) ([3]; HFpEF increase vs chow, after adropin treatment): significantly attenuated | whole-body glucose tolerance / sensitivity ([3]; HFpEF+Adropin vs HFpEF, 450 nmol/kg daily i.p.): significantly restored; also recorded: significantly improves | IVRT ([4]; GPR19-KO HFpEF mice vs GPR19-KO control mice, in contrast to wildtype, p-value <0.01): significantly greater | diastolic function (MV E/e′) ([4]; GPR19-KO mice vs control mice, in contrast to wildtype, p-value <0.001): remained significantly lower | fasted body weight of HFpEF mice relative to HFpEF mice that received Adropin ([4]; GPR19-KO mice, p-value <0.0001): significantly greater | Adropin-mediated improvement of diastolic function in GPR19-KO HFpEF mice ([4]; fasted body weight, MV E/e′ and IVRT): not observed; also recorded: GPR19-dependent | body weight of GPR19-KO HFpEF mice that received Adropin relative to wildtype HFpEF mice that received Adropin ([4]; p-value <0.0001): significantly greater | diastolic function (MV E/e′) ([4]; wildtype HFpEF mice that received Adropin vs wildtype HFpEF mice without Adropin): increased on average | IVRT [4, 11]: not significantly different | diastolic function (MV E/e′) [4, 11]: not significantly different | IVRT ([4]; wildtype HFpEF which received Adropin vs wildtype HFpEF mice without treatment, p-value <0.01): significantly lower | fasted body weight of HFpEF mice relative to HFpEF mice that received Adropin ([4]; wildtype mice, p-value <0.0001): significantly greater | peptide cleared from circulation [5]: 96% | average cardiac output [6, 12]: greater | average ejection fraction [6, 12]: greater | isovolumetric relaxation time (IVRT) [6, 13]: significantly lower | left ventricle myocardial performance index (LV MPI) [6, 13]: significantly lower | diastolic function [6]: improves | diastolic function ([6]; listed as Recombinant Adropin): significant increase | diastolic function ([6]; listed as recombinant Adropin): improved | average LV mass ([6]; following 2 weeks of Adropin, vs HFpEF mice without treatment): lower | LCAD enzymatic activity (oxidation rates) [7]: restored | relative body weight (change per mouse between days 0 and 29) ([8]; HFpEF mice that received Adropin vs HFpEF mice without treatment): significantly lower | relative body weight (change per mouse between days 0 and 29) ([8]; HFpEF mice that received Adropin vs mice on control chow diet): significantly greater | body weight ([8]; HFpEF mice which received Adropin versus HFpEF mice which did not, daily Adropin for four weeks, beginning on day 8): reduced; also recorded: decrease | lung or liver mass ([9]; after 4 weeks): no differences were observed | average LV mass (FIG. 3A; cardiac hypertrophy) ([9]; following 4 weeks of Adropin, vs HFpEF mice without treatment): lower; also recorded: reduces | expression of extracellular matrix remodeling/fibrosis (e.g. Comp, Col12a1) and natriuretic peptide (e.g. Nppa) genes ([10]; Adropin-treated vs HFpEF mice): decreased expression; also recorded: downregulated | decrease in extracellular matrix remodeling transcripts (Col1a1, Col3a1, Col5a1, Mmp2) ([10]; adropin-treated vs vehicle-treated HFpEF mice): > 2 fold | metabolic genes ([10]; between HFpEF and Adropin groups): no widespread changes
